# Data: patent US20110230431A1, “FOSFOMYCIN/TOBRAMYCIN COMBINATIONS FOR THE TREATMENT AND PREVENTION OF OPHTHALMIC, OTOLOGICAL AND DERMATOLOGICAL INFECTIONS” (Gilead Sciences, Inc., priority 2008, published 2011)
# Like-named read-outs stand apart in the source and are kept apart here.
# Key:
# P. aeruginosa [1] = test: MIC by agar plate dilution method (CLSI); assay type: cell-based, Pseudomonas aeruginosa
# Text: (§1) P. aeruginosa strains isolated from patients with cystic fibrosis (CF) were obtained from Children's Hospital and Regional Medical Center (Seattle, Wash.). Clinical isolates of Escherichia coli and Staphylococcus aureus were obtained from The Jones Group Laboratories (JMI; North Liberty, Iowa) and The Clinical Microbiology Institute (CMI; Wilsonville, Oreg.). P. aeruginosa 27853, S. aureus 29213, and E. coli 25922 served as quality control strains^1 and were obtained from The America Type Culture Collection (ATCC; Manassas, Va.). P. aeruginosa ATCC 27853, a fosfomycin and tobramycin susceptible strain, was used in macromolecular biosynthesis and tobramycin uptake experiments. Stock cultures were maintained at −80° C. in Cation-Adjusted Mueller-Hinton Broth (CAMHB) (Remel; Lenexa, Kans.) supplemented with 20% glycerol (VWR: West Chester, Pa.). Cultures for routine use were grown on tryptic soy agar plates+5% sheeps blood (PML Microbiologicals Inc.; Wilsonville, Oreg.) and stored at 4° C.
# (§2) MICs were determined by the agar plate dilution method according to CLSI guidelines (National Committee for Clinical Laboratory Standards. M7-A6. 6th ed. Villanova (Pa.): NCCLS, 2003; M100-S14. Villanova (Pa.): NCCLS, 2004).
# E. coli [2] = test: MIC by agar plate dilution method (CLSI); assay type: cell-based, Escherichia coli
# Text: as §1, §2
# S. aureus = assay type: cell-based, Staphylococcus aureus
# Procedure: (§3) Development of resistance after a single exposure to antibiotic was determined for both clinical and reference isolates of P. aeruginosa, S. aureus, and E. coli. Late Log-phase cultures were centrifuged at 1,400×g at room temperature for 20 min and the cell pellets resuspended in CAMHB. […] The culture plates were incubated at 37° C. for 48 h and the number of colonies on each plate was enumerated manually. The spontaneous mutation frequency (SMF) resulting in antibiotic resistance was calculated by dividing the number of bacteria growing at the defined antibiotic concentration by the number of bacteria in the inoculum (Martinex, J L, Antimicrob Agents Chemother 2000; 44 (1):1771-1777).
# P. aeruginosa [3] = assay type: cell-based, Pseudomonas aeruginosa
# Procedure: as §3
# E. coli [4] = assay type: cell-based, Escherichia coli
# Procedure: as §3
# P. aeruginosa ATCC 27853 = test: Time-kill experiments in CAMHB with 2% mucin; assay type: cell-based, Pseudomonas aeruginosa
# Procedure: Time-kill experiments were performed according to a modified CLSI method (National Committee for Clinical Laboratory Standards. M-26A. Villanova (Pa.): NCCLS, 1999). […] Bacterial cultures and antibiotic(s) were incubated at 37° C. in a shaking water bath (200 rpm) and killing activity assessed at 0, 1, 2, 4, 6 and 24 h. Antibiotics that reduced the original inoculum by ≧3-Log10 were considered bactericidal. Antibiotics that reduced the original inoculum by ≦2-Log10 were considered bacteriostatic.
substance,measurement,setting,value
tobramycin sulfate,MIC,P. aeruginosa [1]; P. aeruginosa ATCC 27853,0.5 µg/mL
same,MIC,P. aeruginosa [1]; P. aeruginosa C002,0.5 µg/mL
same,MIC,P. aeruginosa [1]; P. aeruginosa C003,0.5 µg/mL
same,MIC,P. aeruginosa [1]; P. aeruginosa C013,0.5 µg/mL
same,MIC,P. aeruginosa [1]; P. aeruginosa C014,0.5 µg/mL
same,MIC,E. coli [2]; E. coli ATCC 25922,0.5 µg/mL
same,MIC,E. coli [2]; E. coli C032,0.5 µg/mL
same,MIC,E. coli [2]; E. coli C036,0.5 µg/mL
same,MIC,E. coli [2]; E. coli C037,4 µg/mL
same,MIC,E. coli [2]; E. coli C294,0.5 µg/mL
same,Frequency of Resistance 4× MIC,"S. aureus; S. aureus ATCC 29213, 4× MIC",1.6 × 10^−7
same,Frequency of Resistance 8× MIC,"S. aureus; S. aureus ATCC 29213, 8× MIC",3.9 × 10^−8
same,Frequency of Resistance 16× MIC,"S. aureus; S. aureus ATCC 29213, 16× MIC",<1.8 × 10^−10
same,Frequency of Resistance 4× MIC,"S. aureus; S. aureus C051, 4× MIC",3.5 × 10^−6
same,Frequency of Resistance 8× MIC,"S. aureus; S. aureus C051, 8× MIC",1.5 × 10^−8
same,Frequency of Resistance 16× MIC,"S. aureus; S. aureus C051, 16× MIC",<2.0 × 10^−10
same,Frequency of Resistance 4× MIC,"S. aureus; S. aureus C053, 4× MIC",2.0 × 10^−7
same,Frequency of Resistance 16× MIC,"S. aureus; S. aureus C053, 16× MIC",<2.3 × 10^−10
same,Frequency of Resistance 4× MIC,"S. aureus; S. aureus C055, 4× MIC",3.8 × 10^−7
same,Frequency of Resistance 8× MIC,"S. aureus; S. aureus C055, 8× MIC",<4.3 × 10^−9
same,Frequency of Resistance 16× MIC,"S. aureus; S. aureus C055, 16× MIC",<2.3 × 10^−10
same,Frequency of Resistance 4× MIC,"S. aureus; S. aureus C057, 4× MIC",1.1 × 10^−6
same,Frequency of Resistance 8× MIC,"S. aureus; S. aureus C057, 8× MIC",<1.4 × 10^−10
same,Frequency of Resistance 16× MIC,"S. aureus; S. aureus C057, 16× MIC",<3.2 × 10^−10
same,Frequency of Resistance 4× MIC,"P. aeruginosa [3]; P. aeruginosa ATCC 27853, 4× MIC",3.0 × 10^−5
same,Frequency of Resistance 8× MIC,"P. aeruginosa [3]; P. aeruginosa ATCC 27853, 8× MIC",2.2 × 10^−7
same,Frequency of Resistance 16× MIC,"P. aeruginosa [3]; P. aeruginosa ATCC 27853, 16× MIC",1.6 × 10^−8
same,Frequency of Resistance 4× MIC,"P. aeruginosa [3]; P. aeruginosa C002, 4× MIC",1.1 × 10^−5
same,Frequency of Resistance 8× MIC,"P. aeruginosa [3]; P. aeruginosa C002, 8× MIC",1.1 × 10^−7
same,Frequency of Resistance 16× MIC,"P. aeruginosa [3]; P. aeruginosa C002, 16× MIC",4.4 × 10^−8
same,Frequency of Resistance 4× MIC,"P. aeruginosa [3]; P. aeruginosa C003, 4× MIC",4.2 × 10^−5
same,Frequency of Resistance 8× MIC,"P. aeruginosa [3]; P. aeruginosa C003, 8× MIC",1.8 × 10^−7
same,Frequency of Resistance 16× MIC,"P. aeruginosa [3]; P. aeruginosa C003, 16× MIC",7.2 × 10^−8
same,Frequency of Resistance 4× MIC,"P. aeruginosa [3]; P. aeruginosa C013, 4× MIC",1.4 × 10^−6
same,Frequency of Resistance 8× MIC,"P. aeruginosa [3]; P. aeruginosa C013, 8× MIC",3.7 × 10^−6
same,Frequency of Resistance 16× MIC,"P. aeruginosa [3]; P. aeruginosa C013, 16× MIC",8.2 × 10^−7
same,Frequency of Resistance 4× MIC,"P. aeruginosa [3]; P. aeruginosa C014, 4× MIC",1.3 × 10^−6
same,Frequency of Resistance 8× MIC,"P. aeruginosa [3]; P. aeruginosa C014, 8× MIC",1.1 × 10^−7
same,Frequency of Resistance 16× MIC,"P. aeruginosa [3]; P. aeruginosa C014, 16× MIC",7.9 × 10^−7
same,Frequency of Resistance 4× MIC,"E. coli [4]; E. coli ATCC 25922, 4× MIC",2.5 × 10^−6
same,Frequency of Resistance 8× MIC,"E. coli [4]; E. coli ATCC 25922, 8× MIC",1.5 × 10^−7
same,Frequency of Resistance 16× MIC,"E. coli [4]; E. coli ATCC 25922, 16× MIC",8.7 × 10^−8
same,Frequency of Resistance 4× MIC,"E. coli [4]; E. coli C032, 4× MIC",1.3 × 10^−6
same,Frequency of Resistance 8× MIC,"E. coli [4]; E. coli C032, 8× MIC",5.5 × 10^−6
same,Frequency of Resistance 16× MIC,"E. coli [4]; E. coli C032, 16× MIC",6.2 × 10^−7
same,Frequency of Resistance 4× MIC,"E. coli [4]; E. coli C036, 4× MIC",4.4 × 10^−6
same,Frequency of Resistance 8× MIC,"E. coli [4]; E. coli C036, 8× MIC",4.7 × 10^−7
same,Frequency of Resistance 16× MIC,"E. coli [4]; E. coli C036, 16× MIC",1.9 × 10^−9
same,Frequency of Resistance 4× MIC,"E. coli [4]; E. coli C037, 4× MIC",1.0 × 10^−6
same,Frequency of Resistance 8× MIC,"E. coli [4]; E. coli C037, 8× MIC",4.4 × 10^−6
same,Frequency of Resistance 16× MIC,"E. coli [4]; E. coli C037, 16× MIC",1.1 × 10^−7
same,Frequency of Resistance 4× MIC,"E. coli [4]; E. coli C294, 4× MIC",6.6 × 10^−5
same,Frequency of Resistance 8× MIC,"E. coli [4]; E. coli C294, 8× MIC",1.3 × 10^−6
same,Frequency of Resistance 16× MIC,"E. coli [4]; E. coli C294, 16× MIC",<7.2 × 10^−9
same,killing activity at 24 h,"P. aeruginosa ATCC 27853; 24 h, FT4:1 16 μg/mL, fosfomycin 12.8 μg/mL, tobramycin 3.2 μg/mL, mucin, FIG. 4",re-growth of the bacterial culture
same,killing activity,"P. aeruginosa ATCC 27853; FT4:1 at 4×MIC (16 μg/mL), component weights fosfomycin 12.8 μg/mL, tobramycin 3.2 μg/mL, mucin, FIG. 4",bacteriostatic killing
same,bacterial killing on increasing the concentration,"P. aeruginosa ATCC 27853; increase from 2 μg/mL to 4 μg/mL (2-fold), FIG. 2",> 4 Log10
same,"killing activity (bactericidal ≧3-Log10, bacteriostatic ≦2-Log10)","P. aeruginosa ATCC 27853; multiples of the MIC, FIG. 1-3",rapidly bactericidal
same,enhancement of bacterial killing in the presence of fosfomycin,"P. aeruginosa ATCC 27853; tobramycin 3.2 μg/mL in the presence of 12.8 μg/mL fosfomycin, FIG. 4",3 Log10 CFU/mL
